From patent publication US20230390315A1, “COMPOSITIONS AND METHODS FOR TREATING ISCHEMIC CONDITIONS” (The Regents of the University of California, priority 2020, published 2023)

Key:
AML12 liver cells = assay: AML12 proliferation assay; assay type: cell-based, mouse
Protocol: (§1) Proliferation assays with fibroblasts were done in low-glucose DMEM containing 1% FBS, with or without 10 ng/ml bFGF, or 100 ng/ml human EGF and the assay was ended at day 3. ARPE-19 cells were gently lifted with 0.025% trypsin and plated in RtEGM media (Clonetics) containing 2% FBS, L-glutamine, human bFGF and GA-1000. Once cells were attached to plates, serum-free RtEGM media was used to maintain the cultures. For proliferation assays, 1500 human RPE cells were plated into 96-well plates in low-glucose DMEM containing 1% FBS. A673, U87MG, Calu6 and AML12 cells were grown until confluent and were then harvested and re-suspended in appropriate assay media. For proliferation assays, cells were plated at the density of 1000-2000 cells/well in low-glucose DMEM containing 5% FBS or otherwise stated. Bovine pituitary cells (pituitary folliculostellate cells) were isolated as previously described. For proliferation assays with human epidermal keratinocytes, human DMVECs and human dermal fibroblast cells, 1000 cells/well were plated in low-glucose DMEM containing 1% FBS with or without various growth factors. The assay was ended at day 3 for bovine pituitary cells and at day 4 for all the other cell types. […] Four days later, tumor cell growth was measured by the MTS assay (Promega, Madison, WI), a colorimetric assay that measures metabolic activity of viable cells. […]

[1] = in vivo
VEGFR2 = assay: Western blot of VEGFR2 protein mass in human ECs; assay type: cell-based; settings: hRMVEC, HUVEC and hDMVECs; 40 uM ManN
Protocol: (§2) Cells were allowed to reach 80% confluency in 12-well plates. […] At various time points, plates were taken out of the incubator and kept on ice. Cell monolayers were first washed once with ice-cold PBS before lysis with 250 μl of Pierce RIPA buffer (ThermoFisher Scientific, Rockford, IL) or use 50 mM Tris-HCl (pH 7.6), 150 mM NaCl, 10% Glycerol, 1% NP-40 containing protease/Phosphatase inhibitor cocktail (100×) (Cell signaling, #5872). Lysates were collected and mixed with 4×Bolt LDS Sample Buffer (Novex, Carlsbad, CA) in the presence of Halt protease inhibitors and phosphatase inhibitor cocktail (ThermoFisher scientific, #NP0007). The samples were subjected to SDS-PAGE (Bolt 4-12% Bis-Tris Plus, Invitrogen) using Bolt MES SDS running buffer or NuPAGE 3-8% Tris-Acetate gel using Tris-Acetate SDS running buffer (Novex). HUVECs (passage 6-8) were plated in EBM-2 basal medium (Lonza) with 0.2% FBS. […] Equal amounts of protein lysates were analyzed by SDS-PAGE and blotted with the indicated antibodies. Proteins were transferred using Tris-Glycine buffer with 20% Methanol (Proteonomics grade) (Apex BioResearch Products). Membranes were first incubated with 5% milk in TBST, pH 7.6 (TEKnova, Hollister, CA), followed by blotting with primary and secondary antibodies. […]

[2] = system: αv integrin, Neuropilin-1, VE-cadherin and bFGFR1; assay: Protein mass of other N-glycosylated proteins in BCEC; assay type: cell-based, bovine
Protocol: as §2

HUVEC = HUVEC scratch assay; assay type: cell-based, human; settings: 40 uM ManN in combination with 50 ng/ml VEGF
Protocol: BCECs (passage 6-10) and HUVEC (passage 6-8) were used in this assay. Cells were grown until about 80% confluency in 6-well plates, washed twice with PBS and then starved in serum-free DMEM (low Glucose, Hyclone) for 5 hrs before making a “scratch” using 1 ml tip. Cell monolayers were briefly washed once with serum-free media, followed by various treatments in media containing 1% FBS. 48 hrs later, the assay was stopped by adding 2 ml 4% paraformaldehyde. 20 min later, fixed cells were stained with 1 ml Crystal Violet (Sigma). Plates were washed gently under the running tap water and air-dried before taking pictures. Images were acquired by ZEISS Discovery V8 SteREO microscopy equipped with PixeLINK Megapixel FireWire camera. Quantification of wound closure was done using AxioVision LE Rel.4.4 software. Six images were taken for each sample and six measurements (in pixel) were made on each image using AxioVision LE Rel.4.4 software.

[3] = system: bovine retinal microvascular endothelial cells (BREC); assay: BREC proliferation assay; assay type: cell-based
Protocol: Proliferation assays with BCECs and BRECs were performed. Log-phase growing BCECs or BRECs (passage <10) were trypsinized, re-suspended and seeded in 96-well plates (no coating) in low-glucose DMEM supplemented with 10% bovine calf serum, 2 mM glutamine, and antibiotics (growth medium), at a density of 1200-1500 cells per well in 200 μl volume. All reagents were added at the indicated final concentrations. After 3-6 days, cells were incubated with AlamarBlue for 4 hrs. Fluorescence was measured at 530 nm excitation wavelength and 590 nm emission wavelength. The experiments were repeated at least three times. To create a hypoxic condition, cells were placed in a hypoxia incubator with a mixture of gas consisting of 1% 02, 5% CO2 and 94% Nz. On each 96-well plate, untreated and VEGF-treated (10/ng/ml) wells were included to monitor plate-to-plate variations. 20% methanol or 0.05% DMSO served as negative controls. 0.05% DMSO served as negative controls when Cas was tested in these cells. Human RMVECs and human adult DMVECs were split into Gelatin-coated 96 wells (2000 cells per well) in low glucose DMEM containing 10% FBS. 1200 cells/well was set up for proliferation assay in low glucose media containing FBS. Data was collected at day 4 or 5. HUVEC (p7-10) were grown on gelatin-coated plate until it reached 70-80% confluency.

Calu6 = Calu6 proliferation assay; assay type: cell-based, human
Protocol: as §1

NIH3T3 fibroblasts = assay: NIH3T3 proliferation assay; assay type: cell-based, mouse; settings: alone or in combination with growth factors
Protocol: as §1

A673 = A673 proliferation assay; assay type: cell-based, human
Protocol: as §1

ARPE-19 RPE cells = assay: Human RPE cell proliferation assay; assay type: cell-based
Protocol: as §1

[4] = alone or in combination with growth factors

N[C@H](C=O)[C@@H](O)[C@H](O)[C@H](O)CO [ManN, 2-Amino-2-deoxy-D-mannose]
cellular toxicity, sensitivity among cell types (AML12 liver cells; 5 mM level of ManN): most sensitive
proliferation of AML12 (AML12 liver cells; [4]): no increases in proliferation
plasma free ManN peak level ([1]; male, C57BL/6, mouse, po): ~100 nmol/ml plasma
time of plasma peak level ([1]; male, C57BL/6, mouse, po): 1 h
free ManN in ischemic leg muscle ([1]; male, C57BL/6, mouse, po, 2 h): 0.17+/−0.18 nmol/mg protein
plasma free ManN detectable relative to peak ([1]; mouse): about half of that amount
change in VEGFR2 protein mass (VEGFR2): significant change in VEGFR2 protein mass
protein mass of other N-glycosylated receptors/adhesion molecules [2]: affected as well
HUVEC wound closure (HUVEC): stimulation of migration and wound closure
additive effects in promoting BREC proliferation [3]: Additive effects
growth of Calu6 (Calu6): did not promote growth
proliferation of NIH3T3 cells (NIH3T3 fibroblasts): no increases in proliferation
growth of A673 (A673): did not promote growth
cellular toxicity, sensitivity among cell types (ARPE-19 RPE cells; 5 mM level of ManN): least sensitive
proliferation of human RPEs (ARPE-19 RPE cells; [4]): no increases in proliferation
